Calls of active or inactive are those of the source. The calls are words filed in the database; no cut-off is given here.
Key:
Carbonic anhydrase 1 = Carbonic anhydrase 1 (Homo sapiens, UniProt P00915); experiment: Inhibition of human carbonic anhydrase 1 assessed as reduction in CO2 hydration after 15 mins by phenol red staining-based stopped flow assay
Carbonic anhydrase 2 = Carbonic anhydrase 2 (Homo sapiens, UniProt P00918); experiment: Inhibition of human carbonic anhydrase 2 assessed as reduction in CO2 hydration after 15 mins by phenol red staining-based stopped flow assay
Carbonic anhydrase 9 = Carbonic anhydrase 9 (Homo sapiens, UniProt Q16790)
Description: Inhibition of human carbonic anhydrase 9 assessed as reduction in CO2 hydration after 15 mins by phenol red staining-based stopped flow assay

Carbonic anhydrase 12 = Carbonic anhydrase 12 (Homo sapiens, UniProt O43570);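 further: Stopped-flow CO2 hydration assay with phenol red indicator, 15 min, measuring inhibition of human CA XII enzymatic activity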
Description: Inhibition of human carbonic anhydrase 12 assessed as reduction in CO2 hydration after 15 mins by phenol red staining-based stopped flow assay

ARPE-19 [1] = experiment: Antiproliferative activity against human ARPE19 cells at 30 uM after 48 hrs in presence of normoxic condition by MTT assay; type: cell-based; conditions: arpe-19, 48 h
ARPE-19 [2] = experiment: Antiproliferative activity against human ARPE19 cells at 30 uM after 48 hrs in presence of hypoxic condition by MTT assay; type: cell-based; conditions: arpe-19, 48 h
SK-MEL-2 [3] = experiment: Antiproliferative activity against human SK-MEL-2 cells at 30 uM after 48 hrs in presence of normoxic condition by MTT assay; type: functional, cell-based
SK-MEL-2 [4] = experiment: Antiproliferative activity against human SK-MEL-2 cells at 30 uM after 48 hrs in presence of hypoxic condition by MTT assay; type: functional, cell-based
PANC-1 [5] = experiment: Antiproliferative activity against human PANC1 cells at 30 to 300 uM after 48 hrs in presence of hypoxic condition by MTT assay; type: functional, cell-based
ARPE-19 [6] = experiment: Antiproliferative activity against human ARPE19 cells at 30 to 300 uM after 48 hrs in presence of hypoxic condition by MTT assay; type: cell-based; conditions: arpe-19, 48 h
PANC-1 [7] = experiment: Antiproliferative activity against human PANC1 cells after 48 hrs in presence of normoxic condition by MTT assay; type: functional, cell-based
PANC-1 [8] = experiment: Antiproliferative activity against human PANC1 cells after 48 hrs in presence of hypoxic condition by MTT assay; type: functional, cell-based
ARPE-19 [9] = experiment: Antiproliferative activity against human ARPE19 cells at 300 uM after 48 hrs in presence of normoxic condition by MTT assay; type: cell-based; conditions: arpe-19, 48 h
ARPE-19 [10] = experiment: Antiproliferative activity against human ARPE19 cells at 300 uM after 48 hrs in presence of hypoxic condition by MTT assay; type: cell-based; conditions: arpe-19, 48 h
SK-MEL-2 [11] = experiment: Antiproliferative activity against human SK-MEL-2 cells at 300 uM after 48 hrs in presence of normoxic condition by MTT assay; type: functional, cell-based
SK-MEL-2 [12] = experiment: Antiproliferative activity against human SK-MEL-2 cells at 300 uM after 48 hrs in presence of hypoxic condition by MTT assay; type: functional, cell-based
PANC-1 [13] = experiment: Antiproliferative activity against human PANC1 cells at 30 to 300 uM after 48 hrs in presence of normoxic condition by MTT assay; type: functional, cell-based
ARPE-19 [14] = experiment: Antiproliferative activity against human ARPE19 cells at 30 to 300 uM after 48 hrs in presence of normoxic condition by MTT assay; type: cell-based; conditions: arpe-19, 48 h
SK-MEL-2 [15] = experiment: Antiproliferative activity against human SK-MEL-2 cells after 48 hrs in presence of normoxic condition by MTT assay; type: functional, cell-based
SK-MEL-2 [16] = experiment: Antiproliferative activity against human SK-MEL-2 cells after 48 hrs in presence of hypoxic condition by MTT assay; type: functional, cell-based
PANC-1 [17] = experiment: Antiproliferative activity against human PANC1 cells at 300 uM after 48 hrs in presence of normoxic condition by MTT assay; type: functional, cell-based
PANC-1 [18] = experiment: Antiproliferative activity against human PANC1 cells at 300 uM after 48 hrs in presence of hypoxic condition by MTT assay; type: functional, cell-based
PANC-1 [19] = experiment: Antiproliferative activity against human PANC1 cells at 30 uM after 48 hrs in presence of normoxic condition by MTT assay; type: functional, cell-based
PANC-1 [20] = experiment: Antiproliferative activity against human PANC1 cells at 30 uM after 48 hrs in presence of hypoxic condition by MTT assay; type: functional, cell-based

Chain of Carbonic anhydrase 1 (P00915 whole entry): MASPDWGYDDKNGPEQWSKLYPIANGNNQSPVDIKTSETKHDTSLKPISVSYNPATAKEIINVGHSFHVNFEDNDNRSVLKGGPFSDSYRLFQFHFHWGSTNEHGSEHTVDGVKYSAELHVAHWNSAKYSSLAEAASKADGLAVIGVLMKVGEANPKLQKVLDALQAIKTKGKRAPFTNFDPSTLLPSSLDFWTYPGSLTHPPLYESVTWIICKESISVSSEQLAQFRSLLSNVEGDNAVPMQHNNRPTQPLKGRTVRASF
Chain of Carbonic anhydrase 12 (O43570 whole entry): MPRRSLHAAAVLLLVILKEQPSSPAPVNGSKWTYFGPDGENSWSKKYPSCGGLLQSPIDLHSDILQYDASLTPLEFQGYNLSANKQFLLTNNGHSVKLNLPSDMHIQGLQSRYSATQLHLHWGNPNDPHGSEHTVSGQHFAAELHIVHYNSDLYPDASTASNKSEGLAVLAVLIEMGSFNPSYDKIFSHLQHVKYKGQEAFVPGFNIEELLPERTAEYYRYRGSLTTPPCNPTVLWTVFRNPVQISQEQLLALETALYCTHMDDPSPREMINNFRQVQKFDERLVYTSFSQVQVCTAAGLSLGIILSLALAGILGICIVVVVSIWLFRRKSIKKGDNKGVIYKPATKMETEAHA

Row | SMILES | Ki (Carbonic anhydrase 1) [nM] | Ki (Carbonic anhydrase 2) [nM] | Ki (Carbonic anhydrase 9) [nM] | Ki (Carbonic anhydrase 12) [nM] | other results
1 | NS(=O)(=O)c1cc(-c2nc(-c3ccccn3)no2)cs1 | 25 | 4.3 | 0.39 | 8.5 | Activity (ARPE-19 [1]): Non-Toxic; Activity (ARPE-19 [2]): Non-Toxic; Activity (SK-MEL-2 [3]): inactive; Activity (SK-MEL-2 [4]): inactive; Activity (PANC-1 [5]): inactive; Activity (ARPE-19 [6]): Non-Toxic; Activity (PANC-1 [7]): Dose-dependent effect; Activity (PANC-1 [8]): Dose-dependent effect
2 | COc1cc(S(N)(=O)=O)ccc1-c1noc(-c2ccccc2)n1 | 459 | 8.8 | 13.1 | 33.1 | 
3 | COc1cc(S(N)(=O)=O)ccc1-c1noc(-c2ccc(C#N)cc2)n1 | 779 | 593 | 274 | 32.9 | 
4 | NS(=O)(=O)c1cccc(-c2noc(-c3ccsc3)n2)c1 |  |  |  |  | Activity (ARPE-19 [9]): Toxic; Activity (ARPE-19 [10]): Toxic; Activity (ARPE-19 [1]): Non-Toxic; Activity (ARPE-19 [2]): Non-Toxic; Activity (SK-MEL-2 [3]): inactive; Activity (SK-MEL-2 [4]): inactive; Activity (SK-MEL-2 [11]): inactive; Activity (SK-MEL-2 [12]): inactive; Activity (PANC-1 [13]): inactive; Activity (PANC-1 [5]): inactive
5 | NS(=O)(=O)c1ccc(-c2noc(C3CC3)n2)cc1 | 7.8 | 4.1 | 1.9 | 97.1 | 
6 | NS(=O)(=O)c1cccc(-c2noc(C3CC3)n2)c1 |  |  |  |  | Activity (PANC-1 [13]): Active; Activity (PANC-1 [5]): Active; Activity (ARPE-19 [14]): Non-Toxic; Activity (ARPE-19 [6]): Non-Toxic
7 | COc1cc(S(N)(=O)=O)ccc1-c1noc(-c2ccsc2)n1 | 1160 | 92.1 | 15.9 | 32.1 | 
8 | NS(=O)(=O)c1ccc(-c2nc(-c3ccccc3)no2)cc1 |  | 1.8 | 6.7 |  | 
9 | COc1cc(S(N)(=O)=O)ccc1-c1noc(-c2cccs2)n1 |  | 92.1 | 15.9 |  | 
10 | NS(=O)(=O)c1cc(-c2nc(-c3ccccc3)no2)cs1 | 8.9 | 1.7 | 0.24 | 9.8 | Activity (PANC-1 [17]): Active; Activity (PANC-1 [18]): Active; Activity (ARPE-19 [9]): Toxic; Activity (ARPE-19 [10]): Toxic
11 | NS(=O)(=O)c1ccc(-c2noc(-c3ccccn3)n2)cc1 | 37.5 | 0.93 | 0.31 | 9.5 | 
12 | COc1cc(S(N)(=O)=O)ccc1-c1noc(-c2cccnc2)n1 | 1020 | 271 | 12.1 | 16.8 | 

The remaining compounds from weak to strong by Ki (Carbonic anhydrase 2), led by results:

Row | Ki (Carbonic anhydrase 1) [nM] | Ki (Carbonic anhydrase 2) [nM] | Ki (Carbonic anhydrase 9) [nM] | Ki (Carbonic anhydrase 12) [nM] | SMILES | other results
13 | 8.1 | 0.91 | 1.6 | 10.1 | Cc1nc(-c2csc(S(N)(=O)=O)c2)no1 | 
14 | 53 | 0.88 | 2.1 | 9.2 | NS(=O)(=O)c1cc(-c2noc(C3CC3)n2)cs1 | 
15 | 5.4 | 0.82 | 2.2 | 33.6 | COc1cccc(-c2noc(-c3csc(S(N)(=O)=O)c3)n2)c1 | Activity (PANC-1 [13]): Active; Activity (PANC-1 [5]): Active; Activity (ARPE-19 [14]): Non-Toxic; Activity (ARPE-19 [6]): Non-Toxic; Activity (PANC-1 [7]): Dose-dependent effect; Activity (PANC-1 [8]): Dose-dependent effect; Activity (SK-MEL-2 [15]): inactive; Activity (SK-MEL-2 [16]): inactive
16 | 9.3 | 0.75 | 0.089 | 10.3 | NS(=O)(=O)c1cc(-c2nc(C3CC3)no2)cs1 | Activity (PANC-1 [19]): Active; Activity (PANC-1 [20]): Active; Activity (ARPE-19 [1]): Non-Toxic; Activity (ARPE-19 [2]): Non-Toxic; Activity (SK-MEL-2 [3]): Active; Activity (SK-MEL-2 [4]): Active
17 | 16.2 | 0.64 | 0.13 | 8.8 | COc1ccccc1-c1noc(-c2csc(S(N)(=O)=O)c2)n1 | 
18 |  | 0.51 | 21.1 |  | COc1ccccc1-c1noc(-c2ccc(S(N)(=O)=O)cc2)n1 | 
19 |  | 0.48 | 243 |  | COc1cccc(-c2noc(-c3ccc(S(N)(=O)=O)cc3)n2)c1 | 
20 | 7.9 | 0.39 | 0.36 | 8.3 | NS(=O)(=O)c1ccc(-c2noc(-c3cccs3)n2)cc1 | Activity (ARPE-19 [9]): Toxic; Activity (ARPE-19 [10]): Toxic; Activity (ARPE-19 [1]): Non-Toxic; Activity (ARPE-19 [2]): Non-Toxic; Activity (SK-MEL-2 [3]): inactive; Activity (SK-MEL-2 [4]): inactive; Activity (SK-MEL-2 [11]): inactive; Activity (SK-MEL-2 [12]): inactive; Activity (PANC-1 [13]): inactive; Activity (PANC-1 [5]): inactive
21 | 48 | 0.3 | 0.44 | 8.2 | NS(=O)(=O)c1ccc(-c2noc(-c3ccncc3)n2)cc1 | 

From ChEMBL document CHEMBL4422619, “Continued exploration of 1,2,4-oxadiazole periphery for carbonic anhydrase-targeting primary arene sulfonamides: Discovery of subnanomolar inhibitors of membrane-bound hCA IX isoform that selectively kill cancer cells in hypoxic environment” (Eur J Med Chem, 2019)
